Experimental data from patent US20070172957A1, “Methods of identifying anti-inflammatory macrolides” (TAISHO PHARMACEUTICAL CO., LTD., priority 2004, published 2007).

Tested on: genes predictive for the anti-inflammatory macrolide effect
Assay: Genes statistically predictive of Clari response: differentially expressed with Clari but not the inactive macrolides MAA or Josa (Appendix E)
Format: cell-based
Source text: In the case of the above-mentioned (i) related to arachidonic acid biosynthesis, specifically, methods of the embodiment involve assaying whether a test macrolide alters biosynthesis of arachidonic acid, alters the expression or activities of enzymes involved in the biosynthesis or activation of arachidonic acid (e.g., arachidonic acid CoA synthetase, delta-6 desaturase, fatty acid elongase, and delta-5 desaturase, AA-related genes in Tables 2 and 3), or alters the expression of genes identified as predictive for the anti-inflammatory macrolide effect (Appendix E). Assays in which arachidonic acid or gene expression or enzymatic activity is detected can be carried out after contacting a cell with a test macrolide. Any cell line that secretes prostaglandin or produces arachidonic acid can be used. Epithelial and macrophages lines (e.g., A549 or THP-1) are suitable for this purpose; other cell lines can be identified by carrying out assays such as those described in the specific Examples, below. Alternatively, screening assays can be carried out after adding a test macrolide to an in vitro cell system (e.g., a cellular extract or liver microsome preparation) or an in vitro enzyme assay system.

In the case of `CC[C@H]1OC(=O)[C@H](C)[C@@H](O[C@H]2C[C@@](C)(OC)[C@@H](O)[C@H](C)O2)[C@H](C)[C@@H](O[C@@H]2O[C@H](C)C[C@H](N(C)C)[C@H]2O)[C@](C)(OC)C[C@@H](C)C(=O)[C@H](C)[C@@H](O)[C@]1(C)O` [clarithromycin], the “group mean, gene SERPING1” value (SpotID 46579, MAA and Josa vs. Clari) is reported as 0.86, the “group mean, gene C12orf8” value (SpotID 46586, MAA and Josa vs. Clari) is reported as 1.22 and the “mean group, FLJ20699” value (SpotID 46633, pooled group mean) is reported as 0.81. The “mean group, ARHGAP1” value (SpotID 46648, pooled group mean) was 0.96, the “group mean, gene KIAA1172” value (SpotID 46679, MAA and Josa vs. Clari) was 0.91 and the “mean group, KIAA1172” value (SpotID 46679, pooled group mean) was 0.92. The “group mean, gene MKNK2” value (SpotID 46825, MAA and Josa vs. Clari) was 1.15, the “mean group, MKNK2” value (SpotID 46825, pooled group mean) was 1.12 and the “group mean, gene PRKAR1A” value (SpotID 46838, MAA and Josa vs. Clari) was 0.92. For the same molecule, the “group mean, gene ARHGDIA” value (SpotID 46843, MAA and Josa vs. Clari) was 0.91, the “mean group, ARHGDIA” value (SpotID 46843, pooled group mean) was 0.93 and the “group mean, gene HEXA” value (SpotID 46882, MAA and Josa vs. Clari) was 1.14. For the same molecule, the “group mean, gene CDIPT” value (SpotID 46896, MAA and Josa vs. Clari) was 1.04, the “mean group, CDIPT” value (SpotID 46896, pooled group mean) was 1.01 and the “mean group, PACE” value (SpotID 46923, pooled group mean) was 1.09. For the same molecule, the “group mean, gene METAP2” value (SpotID 46935, MAA and Josa vs. Clari) was 0.88, the “mean group, METAP2” value (SpotID 46935, pooled group mean) was 0.89 and the “group mean, gene HSPBP1” value (SpotID 46979, MAA and Josa vs. Clari) was 0.87. The “mean group, EREG” value (SpotID 46988, pooled group mean) was 0.85, the “group mean, gene TFPI2” value (SpotID 46991, MAA and Josa vs. Clari) was 0.57 and the “group mean, gene C2orf3” value (SpotID 47034, MAA and Josa vs. Clari) was 0.87. The “mean group, C2orf3” value (SpotID 47034, pooled group mean) was 0.90, the “group mean, gene NFRKB” value (SpotID 47056, MAA and Josa vs. Clari) was 0.82 and the “group mean, gene GOLGB1” value (SpotID 47111, MAA and Josa vs. Clari) was 1.17. For the same molecule, the “group mean, gene MCM2” value (SpotID 47123, MAA and Josa vs. Clari) was 0.78, the “group mean, gene KIAA0251” value (SpotID 47131, MAA and Josa vs. Clari) was 1.07 and the “group mean, gene ARHGAP1” value (SpotID 47192, MAA and Josa vs. Clari) was 0.94. For the same molecule, the “group mean, gene ITGB5” value (SpotID 47212, MAA and Josa vs. Clari) was 1.12, the “mean group, NUBP1” value (SpotID 47241, pooled group mean) was 0.95 and the “group mean, gene AKR1A1” value (SpotID 47249, MAA and Josa vs. Clari) was 1.08. The “group mean, gene HKE4” value (SpotID 47251, MAA and Josa vs. Clari) was 1.13, the “mean group, EPOR” value (SpotID 47314, pooled group mean) was 1.14 and the “group mean, gene ADAM11” value (SpotID 47352, MAA and Josa vs. Clari) was 1.18. For the same molecule, the “mean group, ADAM11” value (SpotID 47352, pooled group mean) was 1.10, the “group mean, gene ERF” value (SpotID 47354, MAA and Josa vs. Clari) was 1.00 and the “mean group, P4HB” value (SpotID 47366, pooled group mean) was 1.18. For the same molecule, the “group mean, gene MTHFD1” value (SpotID 47406, MAA and Josa vs. Clari) was 0.93, the “mean group, CETN2” value (SpotID 47415, pooled group mean) was 1.18 and the “group mean, gene SNK” value (SpotID 47418, MAA and Josa vs. Clari) was 0.77. The “mean group, SNK” value (SpotID 47418, pooled group mean) was 0.82, the “mean group, GCS1” value (SpotID 47432, pooled group mean) was 1.02 and the “group mean, gene DCTN1” value (SpotID 47439, MAA and Josa vs. Clari) was 0.93. The “mean group, DCTN1” value (SpotID 47439, pooled group mean) was 0.95, the “group mean, gene RANBP1” value (SpotID 47446, MAA and Josa vs. Clari) was 0.83 and the “mean group, RANBP1” value (SpotID 47446, pooled group mean) was 0.89. The “mean group, MSH3” value (SpotID 47504, pooled group mean) was 0.99, the “mean group, SERPINA1” value (SpotID 47522, pooled group mean) was 0.95 and the “group mean, gene PTK2B” value (SpotID 47524, MAA and Josa vs. Clari) was 1.08. For the same molecule, the “group mean, gene ARHGDIA” value (SpotID 47535, MAA and Josa vs. Clari) was 0.91, the “group mean, gene TRAP1” value (SpotID 47622, MAA and Josa vs. Clari) was 0.89 and the “mean group, TRAP1” value (SpotID 47622, pooled group mean) was 0.94. For the same molecule, the “group mean, gene HSPA9B” value (SpotID 47661, MAA and Josa vs. Clari) was 0.90, the “mean group, NR4A2” value (SpotID 47679, pooled group mean) was 1.14 and the “group mean, gene HSPA9B” value (SpotID 47694, MAA and Josa vs. Clari) was 0.90. The “mean group, HSPA9B” value (SpotID 47694, pooled group mean) was 0.95, the “group mean, gene MAD4” value (SpotID 47705, MAA and Josa vs. Clari) was 1.42 and the “group mean, gene NBS1” value (SpotID 47754, MAA and Josa vs. Clari) was 0.89. The “mean group, NBS1” value (SpotID 47754, pooled group mean) was 0.97, the “group mean, gene KIAA1922” value (SpotID 47755, MAA and Josa vs. Clari) was 0.79 and the “group mean, gene POLA” value (SpotID 47776, MAA and Josa vs. Clari) was 0.86. The “mean group, POLA” value (SpotID 47776, pooled group mean) was 0.89, the “group mean, gene BET3” value (SpotID 47793, MAA and Josa vs. Clari) was 1.08 and the “group mean, gene GOT1” value (SpotID 47802, MAA and Josa vs. Clari) was 0.93. The “mean group, GOT1” value (SpotID 47802, pooled group mean) was 0.94, the “group mean, gene ENTPD6” value (SpotID 47811, MAA and Josa vs. Clari) was 1.11 and the “mean group, ENTPD6” value (SpotID 47811, pooled group mean) was 1.06. The “mean group, SSI-1” value (SpotID 47846, pooled group mean) was 0.93, the “group mean, gene PRLR” value (SpotID 47850, MAA and Josa vs. Clari) was 0.99 and the “mean group, PRLR” value (SpotID 47850, pooled group mean) was 0.99. The “group mean, gene ERF” value (SpotID 47898, MAA and Josa vs. Clari) was 1.01, the “group mean, gene YWHAE” value (SpotID 47911, MAA and Josa vs. Clari) was 0.95 and the “group mean, gene CCNE2” value (SpotID 47926, MAA and Josa vs. Clari) was 0.73. For the same molecule, the “group mean, gene P4HA1” value (SpotID 47935, MAA and Josa vs. Clari) was 1.27, the “mean group, P4HA1” value (SpotID 47935, pooled group mean) was 1.18 and the “group mean, gene CTSB” value (SpotID 47937, MAA and Josa vs. Clari) was 1.15. For the same molecule, the “group mean, gene INPP5E” value (SpotID 47939, MAA and Josa vs. Clari) was 0.89 and the “group mean, gene SF3B3” value (SpotID 47947, MAA and Josa vs. Clari) was 0.93.
